These results are taken from ChEMBL document CHEMBL3046137, “Benzo[d][1,3] oxathiols: synthesis and biological evaluation as potential atypical antipsychotic agents” (Med Chem Res, 2011).

In series [1] the test system is Mus musculus. The series is described as follows: Induction of catalepsy in ip dosed Mus musculus albino (mouse) measured after 20 min for 5 min. Format: organism-based. The conditions noted are these: in vivo.
Series [2] deals with Mus musculus. The series is described as follows: Atypical antipsychotic activity in Mus musculus albino (mouse) assessed as inhibition of apomorphine-induced climbing behaviour at 60 mg/kg, ip administered 30 min prior to apomorphine-challenge measured after 5 min for 30 min relative to control. Format: functional. The conditions noted are these: route intraperitoneal.
For series [3], the system named is Mus musculus. The series is described as follows: Induction of catalepsy in Mus musculus albino (mouse) at 25 mg/kg, ip measured after 20 min for 5 min. Format: organism-based. Details: dose 25 mg/kg, route intraperitoneal. The note with it: in vivo.
In series [4] the test system is Mus musculus. The series is described as follows: Atypical antipsychotic activity in Mus musculus albino (mouse) assessed as inhibition of 5HTP-induced head twitching at 25 mg/kg, ip administered 30 min prior to 5-HTP-challenge measured after 20 min for 5 min.
Series [5] is filed under the species Mus musculus. The series is described as follows: animal or person. The note with it: albino, ip, read-out: INH.
Description: Atypical antipsychotic activity in Mus musculus albino (mouse) assessed as inhibition of apomorphine-induced climbing behaviour at 25 mg/kg, ip administered 30 min prior to apomorphine-challenge measured after 5 min for 30 min relative to control

`O=c1oc2cc(OCCCN3CCNCC3)ccc2s1`: the Activity result with Mus musculus [1] is “Dose-dependent effect”; in the series with Mus musculus [3] it was 42.39%. Further, the inhibition in vivo at 60 mg/kg in the series with Mus musculus [2] amounted to 62.3%. In the series with Mus musculus [4], the inhibition in vivo at 25 mg/kg turned out to be 68.2%.
For the compound `O=C1CCc2ccc(OCCCCN3CCN(c4cccc(Cl)c4Cl)CC3)cc2N1` [ARIPIPRAZOLE], in the series on Mus musculus [3], the Activity is on record as 29.34%. Also, the figures for the inhibition in vivo at 25 mg/kg in the series with Mus musculus [4] and in the series filed under Mus musculus [5] were 80.2% and 62.4%, respectively.
As for `O=c1oc2cc(OCCCOc3ccc([N+](=O)[O-])cc3)ccc2s1`, the Activity entry with Mus musculus [1] is reported as “Dose-dependent effect”; in the series with Mus musculus [3], 43.92%. In the series with Mus musculus [2], the inhibition in vivo at 60 mg/kg came to 67.3%. Besides, the inhibition in vivo at 25 mg/kg in the series with Mus musculus [4] was determined as 80%.
The matching figures for `O=c1oc2cc(OCCCn3cnnc3)ccc2s1`: “Dose-dependent effect”, 36.98%, 70% and 79.3%.
The matching figures for `O=c1oc2cc(OCCCN3CCCCC3)ccc2s1`: “Dose-dependent effect”, 41%, 51.2% and 67.3%.
The corresponding values for `O=c1oc2cc(OCCCOc3ccc(Cl)cc3)ccc2s1` are “Dose-dependent effect”, 33.71%, 49.3% and 77.9%.
With `O=c1oc2cc(OCCCOc3ccc4ccccc4c3)ccc2s1`, the figures for the Activity entry in the series on Mus musculus [1] and in the series on Mus musculus [3] were “Dose-dependent effect” and 41.22%, respectively. Also, in the series with Mus musculus [2], the inhibition in vivo at 60 mg/kg was 47%. Moreover, the inhibition in vivo at 25 mg/kg in the series with Mus musculus [4] was found to be 61.1%.
The corresponding values for `CCN(CC)CCCOc1ccc2sc(=O)oc2c1` are “Dose-dependent effect”, 37.11%, 53.3% and 63.4%.
The matching figures for `Cc1ccc(OCCCOc2ccc3sc(=O)oc3c2)cc1`: “Dose-dependent effect”, 39.48%, 52.4% and 77.3%.
The corresponding values for `O=c1oc2cc(OCCCOc3cccc4ccccc34)ccc2s1` are “Dose-dependent effect”, 49.21%, 39% and 58.3%.
With `O=c1oc2cc(OCCCN3CCOCC3)ccc2s1`, the Activity result is reported as “Dose-dependent effect” in the series on Mus musculus [1] and 39.27% with Mus musculus [3]. In addition, the inhibition in vivo at 60 mg/kg in the series on Mus musculus [2] stood at 69.6%. Further, the inhibition in vivo at 25 mg/kg in the series with Mus musculus [4] was determined as 71.5%.
